From ChEMBL document CHEMBL4152347 (J Med Chem, 2018)
In brackets after ≈: the same amount, converted by molar mass.

What was measured:
[1] = Tmax in cynomolgus monkey at 5 mg/kg, po administered via gavage; type: ADME, organism-based, Macaca fascicularis; settings: in vivo
[2] = Cmax in beagle dog at 5 mg/kg, po administered via gavage as microsuspension pre-treated with 40 mg famotidine in capsule form 1 hr before compound dosing; type: ADME, organism-based, Canis lupus familiaris; parameters: dose 5 mg/kg, route oral; settings: in vivo
[3] = in vitro; settings: rat, liver microsomes
Description: Half life in rat liver microsomes at 0.5 uM after 1 hr in presence of NADPH by LC-MS/MS analysis

[4] = Total plasma clearance in cynomolgus monkey at 1 mg/kg, iv; type: ADME, organism-based, Macaca fascicularis
[5] = Cmax in CD1 mouse at 5 mg/kg, po administered via gavage; type: ADME, organism-based; parameters: dose 5 mg/kg, route oral; settings: in vivo
[6] = Stability of the compound in human liver microsomes in presence of […]; type: ADME, microsome
[7] = Total plasma clearance in Sprague-Dawley rat at 1 mg/kg, iv; type: ADME, organism-based
[8] = Cmax in Sprague-Dawley rat at 5 mg/kg, po; type: ADME, organism-based; parameters: dose 5 mg/kg, route oral; settings: in vivo
[9] = Total plasma clearance in CD1 mouse at 1 mg/kg, iv; type: ADME, organism-based
[10] = Cmax in Sprague-Dawley rat at 5 mg/kg, id; type: ADME, organism-based; parameters: dose 5 mg/kg; settings: in vivo
[11] = Oral bioavailability in beagle dog at 5 mg/kg administered via gavage as microsuspension pre-treated with 6 ug/kg, im pentagastrin 15 to 30 mins before compound dosing; type: ADME, organism-based, Canis lupus familiaris; settings: in vivo
[12] = biological target: Human immunodeficiency virus type 1 Gag protein (Human immunodeficiency virus 1) (UniProt Q77YG1)
Description: Binding affinity to wild type HIV1 gag polyprotein containing viral like particle assessed as dissociation half life

[13] = biological target: Gag-Pol polyprotein (Human immunodeficiency virus type 1 group M subtype B (isolate HXB2)(HIV-1)) (UniProt P04585); settings: Human immunodeficiency virus 1
Description: Binding affinity to HIV1 gag polyprotein delta V370 mutant containing viral like particle assessed as dissociation half life

[14] = Solubility of compound in fasted state simulated intestinal fluid at pH 6.5; type: physicochemical
[15] = biological target: Cytochrome P450 3A4 (Homo sapiens, UniProt P08684); test: Drug metabolism assessed as recombinant CYP3A4 (unknown origin)-mediated oxidative metabolism; type: ADME; settings: recombinant enzyme
Chain of Cytochrome P450 3A4 (P08684 whole entry): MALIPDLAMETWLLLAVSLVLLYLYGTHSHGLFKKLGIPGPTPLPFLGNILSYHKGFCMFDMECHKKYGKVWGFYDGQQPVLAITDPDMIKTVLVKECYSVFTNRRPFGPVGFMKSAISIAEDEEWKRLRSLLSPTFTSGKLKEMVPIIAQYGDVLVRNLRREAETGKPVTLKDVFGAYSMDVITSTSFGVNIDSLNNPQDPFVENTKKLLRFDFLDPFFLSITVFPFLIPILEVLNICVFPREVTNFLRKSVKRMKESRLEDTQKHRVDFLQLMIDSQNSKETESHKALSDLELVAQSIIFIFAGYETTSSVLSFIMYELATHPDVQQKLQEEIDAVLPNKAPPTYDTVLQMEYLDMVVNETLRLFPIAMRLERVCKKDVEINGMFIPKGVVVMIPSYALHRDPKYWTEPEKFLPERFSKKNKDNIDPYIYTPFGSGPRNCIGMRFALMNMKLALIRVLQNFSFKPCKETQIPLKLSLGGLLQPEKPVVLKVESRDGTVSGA

[16] = AUC (0 to infinity) in beagle dog at 5 mg/kg, po administered via gavage as solution; type: ADME, organism-based, Canis lupus familiaris; parameters: dose 5 mg/kg, route oral, time infinity; settings: in vivo
[17] = system: Salmonella typhimurium; test: Mutagenicity in Salmonella typhimurium TA100 in absence of Aroclor 1254-induced rat liver S9 fraction at up to 1600 ug/plate; type: toxicity, organism-based; settings: salmonella enterica subsp. enterica serovar typhimurium
[18] = Stability of the compound in human plasma at 1 uM after 2 hrs by LC-MS/MS analysis; type: ADME, cell-free
[19] = Cmax in MDR1 a/b knockout mouse at 5 mg/kg, po administered via gavage; type: ADME, organism-based; parameters: dose 5 mg/kg, route oral; settings: in vivo
[20] = Tmax in CD1 mouse at 5 mg/kg, po administered via gavage; type: ADME, organism-based; settings: in vivo
[21] = system: Salmonella typhimurium; test: Mutagenicity in Salmonella typhimurium TA100 in presence of Aroclor 1254-induced rat liver S9 fraction at up to 1600 ug/plate; type: toxicity, organism-based; settings: salmonella enterica subsp. enterica serovar typhimurium
[22] = Oral bioavailability in beagle dog at 5 mg/kg administered via gavage as microsuspension pre-treated with 40 mg famotidine in capsule form 1 hr before compound dosing; type: ADME, organism-based, Canis lupus familiaris; settings: in vivo
[23] = biological target: Gag-Pol polyprotein (Human immunodeficiency virus type 1 group M subtype B (isolate HXB2)(HIV-1), UniProt P04585, V370A)
[24] = system: Canis familiaris; test: Half life in beagle dog at 1 mg/kg, iv; type: ADME, organism-based, Canis lupus familiaris; settings: in vivo
[25] = Half life in human hepatocytes at 0.5 uM after 1 hr in presence of NADPH by LC-MS/MS analysis; type: ADME, cell-based, Hepatocyte
[26] = Tmax in beagle dog at 5 mg/kg, po administered via gavage as microsuspension along with high fat meal; type: ADME, organism-based, Canis lupus familiaris; settings: in vivo
[27] = in vivo; settings: Sprague-Dawley, rat, po, 5 mg/kg
[28] = AUC (0 to infinity) in Sprague-Dawley rat at 5 mg/kg, id; type: ADME, organism-based; parameters: dose 5 mg/kg, time infinity; settings: in vivo
[29] = Half life in mouse liver microsomes at 0.5 uM after 1 hr in presence of NADPH by LC-MS/MS analysis; type: ADME, microsome
[30] = AUC (0 to infinity) in cynomolgus monkey at 1 mg/kg, iv; type: ADME, organism-based, Macaca fascicularis; parameters: dose 1 mg/kg, time infinity, route intravenous; settings: in vivo
[31] = Half life in mouse hepatocytes at 0.5 uM after 1 hr in presence of NADPH by LC-MS/MS analysis; type: ADME, cell-based, Hepatocyte
[32] = Cmax in beagle dog at 5 mg/kg, po administered via gavage as microsuspension pre-treated with 6 ug/kg, im pentagastrin 15 to 30 mins before compound dosing; type: ADME, organism-based, Canis lupus familiaris; settings: in vivo
[33] = Tmax in Sprague-Dawley rat at 5 mg/kg, id; type: ADME, organism-based; settings: in vivo
[34] = system: Canis familiaris; test: Oral bioavailability in beagle dog at 5 mg/kg administered via gavage as microsuspension along with high fat meal; type: ADME, organism-based, Canis lupus familiaris; settings: in vivo

C=C(C)[C@@H]1CC[C@]2(NCCN3CCS(=O)(=O)CC3)CC[C@]3(C)[C@H](CC[C@@H]4[C@@]5(C)CC=C(c6ccc(C(=O)O)cc6)C(C)(C)[C@@H]5CC[C@]43C)[C@@H]12 [BMS-955176]
Tmax [1]: 3.3 h
Cmax [2]: 4.04 µM
half-life at 1 h, 0.5 µM [3]: > 2 h
clearance [4]: 1.9 mL/min/kg
Cmax [5]: 2.79 µM
Stability [6]: Stable
clearance [7]: 2.2 mL/min/kg
Cmax [8]: 1.2 µM
clearance [9]: 1.1 mL/min/kg
Cmax [10]: 1.7 µM
bioavailability [11]: 26%
T1/2 [12]: 0.683 h
T1/2 [13]: 0.767 h
solubility [14]: 280 µg/mL (≈ 405 µM)
Drug metabolism [15]: Metabolite_Detected
AUC(0-inf) [16]: 29.4 µM·h
Activity [17]: Non-Toxic
Stability [18]: Stable
Cmax [19]: 4.02 µM
Tmax [20]: 3 h
Activity [21]: Non-Toxic
bioavailability [22]: 26%
Kd [23]: 6.5 nM
t1/2 [24]: 7.8 min
half-life at 0.5 µM [25]: > 2 h
Tmax [26]: 10.5 h
AUC(0-t) at 6 h [27]: 4.13 µM·h
AUC(0-inf) [28]: 19.9 µM·h
half-life at 0.5 µM [29]: > 2 h
AUC(0-inf) [30]: 13.6 µM·h
half-life at 0.5 µM [31]: > 2 h
Cmax [32]: 4.43 µM
Tmax [33]: 1 h
F [34]: 67%
